Measured values: ChEMBL document CHEMBL2062490, “The discovery of new potent non-peptide Angiotensin II AT1 receptor blockers: a concise synthesis, molecular docking studies and biological evaluation of N-substituted 5-butylimidazole derivatives” (Eur J Med Chem, 2012)

Legend:
[1] = biological target: T1, Type-1 angiotensin II receptor (Homo sapiens, UniProt P30556); experiment: (§1) Displacement of 125[I-Sar1-Ile8]ANG II from human AT1 receptor expressed in HEK293 membranes after 1 hr by gamma counting; assay type: cell membranes
T1 sequence (P30556 whole entry): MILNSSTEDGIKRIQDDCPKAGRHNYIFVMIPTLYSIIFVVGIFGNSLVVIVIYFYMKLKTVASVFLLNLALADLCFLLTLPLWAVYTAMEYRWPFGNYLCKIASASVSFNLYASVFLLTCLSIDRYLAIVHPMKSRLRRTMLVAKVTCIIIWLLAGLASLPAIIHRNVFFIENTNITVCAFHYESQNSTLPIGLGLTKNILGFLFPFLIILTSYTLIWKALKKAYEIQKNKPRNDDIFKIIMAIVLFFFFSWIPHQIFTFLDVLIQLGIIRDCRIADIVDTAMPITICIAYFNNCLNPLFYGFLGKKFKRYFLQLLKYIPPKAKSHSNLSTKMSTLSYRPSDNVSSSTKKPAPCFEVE

[2] = biological target: T2, Type-1 angiotensin II receptor (Homo sapiens) (UniProt P30556); experiment: as §1; assay type: cell membranes
T2 sequence (whole entry): T1 sequence (P30556 whole entry)

[3] = Antagonist activity at AT1 receptor in rat uterus assessed inhibition of ANG II-induced contraction

SMILES | IC50 ([1]; read-out: IC50) [nM] | Activity [2] | pA2 [3] | IC50 ([1]; read-out: pIC50 (converted)) [nM]
CCCCc1cnc(CO)n1Cc1ccc(-c2ccccc2-c2nnn[nH]2)cc1 | 30 |  |  | 
CCCCc1cnc(C=O)n1Cc1ccc(-c2ccccc2-c2nn[nH]n2)cc1 | 24 | Dose-dependent effect | 7.76 | 
CCCCc1c(Br)nc(CO)n1Cc1ccc(-c2ccccc2-c2nnn[nH]2)cc1 | 117 |  |  | 
CCCCc1cnc(CO)n1Cc1ccc(-c2ccccc2C(=O)O)cc1 | 245 | Dose-dependent effect | 6.19 | 
CCCCc1nc(Cl)c(CO)n1Cc1ccc(-c2ccccc2-c2nnn[nH]2)cc1 |  | Dose-dependent effect |  | 
CCCCc1cnc(C(=O)O)n1Cc1ccc(-c2ccccc2-c2nn[nH]n2)cc1 |  | Dose-dependent effect | 7.83 | 
CCCCc1c(I)nc(CO)n1Cc1ccc(-c2ccccc2-c2nnn[nH]2)cc1 | 446 |  |  | 
CCCCc1cnc(CO)n1Cc1ccc(-c2ccccc2-c2nn[nH]n2)cc1 |  | Dose-dependent effect | 7.97 | 
CCCCc1c(I)nc(CO)n1Cc1ccc(-c2ccccc2-c2nn[nH]n2)cc1 |  | Dose-dependent effect | 7.35 | 
CCCCc1c(Cl)nc(CO)n1Cc1ccc(-c2ccccc2-c2nn[nH]n2)cc1 | 634 | Dose-dependent effect | 6.98 | 
CCCCc1c(Br)nc(CO)n1Cc1ccc(-c2ccccc2-c2nn[nH]n2)cc1 |  | Dose-dependent effect | 7.58 | 
CCCCc1cnc(C(=O)O)n1Cc1ccc(-c2ccccc2-c2nnn[nH]2)cc1 | 3 |  |  | 3.47
